The results in this text go back to paper PMC11597207, “Synthesis and Anti-Inflammatory and Analgesic Potentials of Ethyl 2-(2,5-Dioxo-1-Phenylpyrrolidin-3-yl)-2-Methylpropanoate” (Pharmaceuticals, 2024).

One data set deals with T1, COX-1 (Ovis aries, UniProt P05979).
T1 construct: purchased Cayman Chemical Batch No.: A4570
T1 sequence (P05979 25-600): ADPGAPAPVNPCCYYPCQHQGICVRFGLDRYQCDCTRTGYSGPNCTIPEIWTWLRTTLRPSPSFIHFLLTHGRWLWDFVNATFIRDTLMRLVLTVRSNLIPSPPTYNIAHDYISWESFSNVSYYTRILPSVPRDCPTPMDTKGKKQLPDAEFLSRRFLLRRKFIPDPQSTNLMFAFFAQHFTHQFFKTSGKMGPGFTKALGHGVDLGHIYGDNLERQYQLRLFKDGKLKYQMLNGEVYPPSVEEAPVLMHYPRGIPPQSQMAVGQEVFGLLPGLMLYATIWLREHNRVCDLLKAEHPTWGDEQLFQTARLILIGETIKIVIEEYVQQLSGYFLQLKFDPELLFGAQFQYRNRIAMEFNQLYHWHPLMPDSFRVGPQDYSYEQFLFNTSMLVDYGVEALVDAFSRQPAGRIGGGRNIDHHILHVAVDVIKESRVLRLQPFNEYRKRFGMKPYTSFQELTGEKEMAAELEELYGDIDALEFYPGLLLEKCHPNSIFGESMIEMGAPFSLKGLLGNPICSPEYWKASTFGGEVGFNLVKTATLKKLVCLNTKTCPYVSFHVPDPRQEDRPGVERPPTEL
The experiment in a line: COX-1 inhibitory assay. The class given is biochemical, sheep. The procedure: The inhibitory potential of synthesized MAK01 was evaluated using a COX-1 inhibitory assay. This utilized a solution of COX-1 enzymes derived from sheep, adhering to previous protocols. The COX-1 enzyme solution was prepared with a specific concentration. The concentration was set at 0.7–0.8 μg per 10 μL. The activation of the enzymes was achieved by taking and mixing 10 μL and 50 μL of the […] enzyme solution and a co-factor solution, respectively. This mixture was then cooled at 4 °C in an ice bucket for a duration of five to six minutes. As for the preparation of the co-factor solution, it began with 0.1 M Tris buffer, which was maintained at a pH of 8.0. To this buffer, 1 mM of hematin was added. Next, 0.9 mM of glutathione was mixed into the solution. Further, the solution was enriched with 0.24 mM of TMPD. After the co-factor solution, specific test samples were prepared. These samples were of a certain concentration and diluted to 20 μL in volume. These test samples were then mixed with 60 μL of the […] enzyme solution. Once the mixture was prepared, it was left undisturbed at room temperature. The duration for this standing period ranged from five to ten minutes. Subsequent to this resting period, 20 μL of 30 mM arachidonic acid was added. This addition served to initiate the reaction within the solution. Post initiation of the reaction, the solution underwent an incubation period. The solution was kept at a temperature of 37 °C. The incubation was allowed to continue for a total of 15 min. The final solution underwent an absorbance measurement. This was performed using a UV–visible spectrophotometer. Specifically, the measurement was made at a 570 nm wavelength. Similarly, the test samples in various concentrations were processed and analyzed using the same procedure. Using the absorbance value over time, the inhibition of the COX-1 enzyme was quantified.
Using the following formulation, the percent inhibition for each sample was calculated. % Inhibition=Abs. test sample−Abs. background/Abs. solvent blank−Abs. background×100

Data set [1] in a line: Solubility observation of the isolated compound. In kind it is physicochemical.

`CCOC(=O)C(C)(C)C1CC(=O)N(c2ccccc2)C1=O` (stereo not drawn) [MAK01, ethyl 2-(2,5-dioxo-1-phenylpyrrolidin-3-yl)-2-methylpropanoate]: half-maximal inhibition on COX-1 (IC50) required 1090 µM. Besides, the COX-1 percent inhibition is listed as 32% at COX-1 (62.50 μg/mL); 38% on COX-1 (125 μg/mL); 46% at COX-1 (250 μg/mL); 56% at COX-1 (500 μg/mL); 65% at COX-1 (1000 μg/mL). Moreover, the inhibition at 62.5 µg/mL at COX-1 (62.50 μg/mL, read-out: COX-1 percent inhibition) was determined as 31.5%. The inhibition at 125 µg/mL on COX-1 (125 μg/mL, read-out: COX-1 percent inhibition) came to 37.5%. Moreover, the inhibition at 250 µg/mL at COX-1 (250 μg/mL, read-out: COX-1 percent inhibition) stood at 45.8%. Further, the inhibition at 500 µg/mL at COX-1 (500 μg/mL, read-out: COX-1 percent inhibition) was determined as 56.5%. The inhibition at 1000 µg/mL on COX-1 (1000 μg/mL, read-out: COX-1 percent inhibition) amounted to 64.8%. For the same compound, the “Solubility in organic solvents” value in data set [1] is “soluble in polar organic solvents”.

The term IC50 denotes the concentration that gives 50% inhibition. Lower therefore signals inhibition by little substance. A word on the inhibition: it is the relative decrease from the control value, in per cent.
